Values joined by “and” are separate entries in the source; they are usually repeats but may differ in a detail not shown here. Identical values can stand only once. Like-named read-outs stand apart in the source and are kept apart here. Values belong to the compound of their own block, whether it stands above or below them.
Tests used:
[1] = target: heparanase; settings: literature value of reference inhibitor 6; read-out: reported IC50; cited from earlier work
[2] = tested on: HT1080 cells; test: Matrigel cell invasion assay, HT1080; assay type: cell-based, human; settings: 24 h of treatment; for inhibition at 10 µM: concentration tested 10 µM
Protocol: (§1) Cells were pre-treated with the indicated drug concentrations in complete medium for 24 h. Then, cells were harvested, resuspended in serum-free medium, and transferred (2.5 × 10^4 cells per filter) to the upper chamber of 24-well Transwell plates (Costar, Corning Inc., Corning, NY) previously coated with Growth Factor Reduced Matrigel (BD Biosciences, San Jose, CA). The same drug concentration used for cell pre-treatment was added to both the upper and lower chambers. After 24 h of incubation, cells that invaded the Matrigel were stained with SRB and then counted through a microscope at 40× −100× magnification depending on cell density. Data were expressed as the % inhibition of cell invasion, with respect to cell invasion in the absence of drugs.

[3] = tested on: U87MG cells; test: Matrigel cell invasion assay, U87MG; assay type: cell-based, human; settings: 24 h of treatment; for inhibition at 10 µM: concentration tested 10 µM
Protocol: as §1

[4] = tested on: U2OS cells; test: Matrigel cell invasion assay, U2OS; assay type: cell-based, human; settings: 24 h of treatment; for inhibition at 10 µM: concentration tested 10 µM
Protocol: as §1

[5] = target: human GS3 heparanase (Homo sapiens, UniProt Q9Y251); test: fondaparinux assay of heparanase enzymatic activity (WST-1 colorimetric); assay type: biochemical; settings: for % inhib @2.5 M ± SD: fixed concentration 2.5 µM (2.5 M [sic]); for % inhib @25 M ± SD: fixed concentration 25 µM (25 M [sic])
Chain of human GS3 heparanase (Q9Y251 other isoform, or with tags, fused parts or gaps): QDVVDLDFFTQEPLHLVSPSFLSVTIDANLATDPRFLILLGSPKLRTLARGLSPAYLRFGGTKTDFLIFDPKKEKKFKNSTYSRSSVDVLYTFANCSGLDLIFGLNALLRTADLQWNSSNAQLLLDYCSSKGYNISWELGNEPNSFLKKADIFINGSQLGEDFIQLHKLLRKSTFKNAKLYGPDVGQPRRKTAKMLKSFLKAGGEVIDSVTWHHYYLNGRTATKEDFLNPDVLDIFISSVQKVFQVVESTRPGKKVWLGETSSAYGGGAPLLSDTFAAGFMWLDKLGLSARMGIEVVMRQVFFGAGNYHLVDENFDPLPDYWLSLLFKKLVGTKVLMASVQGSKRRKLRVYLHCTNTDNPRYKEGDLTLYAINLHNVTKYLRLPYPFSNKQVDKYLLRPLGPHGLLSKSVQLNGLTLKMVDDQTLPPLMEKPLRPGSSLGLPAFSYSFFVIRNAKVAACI
Text: To determine the activity of the heparanase inhibitors, a homogeneous assay based on the cleavage of the synthetic heparin oligosaccharide fondaparinux (Arixtra; Aspen) was used. The assay measures colorimetrically the appearance of the disaccharide product of heparanase-catalysed fondaparinux cleavage using the tetrazolium salt WST-1. The assay was essentially performed as described[39] with minor modifications. Briefly, Nunc 96-well (Thermo Fisher Scientific) plates were pre-treated with a solution of 4% BSA (bovine serum albumin, Sigma-Aldrich) in phosphate-buffered saline containing 0.05% Tween 20 (PBST), for 2 h at 37 °C, and then washed three times with PBST. […] The IC50 value for each compound was calculated by GraphPad software. Finally, the measurements were corrected by subtracting both the reagent background and the inner absorbance value of test compound.
Supporting Table S1 reports the structures of the fifty-five compounds purchased and tested, with information, for each compound, on the database from which it was retrieved, the reference inhibitor used to retrieve it and the similarity value with the reference inhibitor.

[6] = tested on: HT1080 (fibrosarcoma) cells; test: proliferation assay (sulforhodamine B), HT1080; assay type: cell-based, human; settings: HT1080, 72 h, range 10–0.2 µM, SRB, read-out: IC50, inhibition of cell proliferation
Protocol: (§2) HT1080 (fibrosarcoma), U87MG (glioblastoma), and U2OS (osteosarcoma) human cell lines were purchased from the American Type Culture Collection (ATCC; Manassas, VA) and maintained according to the manufacturer’s recommendations. Briefly, HT1080 and U87MG were grown in modified Eagle medium (Thermo Fisher Scientific), while U2OS cells were grown in McCoy’s 5a medium (Thermo Fisher Scientific), all supplemented with 10% FCS (Thermo Fisher Scientific), 100 U/mL penicillin, and 100 μg/mL streptomycin (Thermo Fisher Scientific) and 2 mM L-glutamine (Thermo Fisher Scientific). Cell lines were maintained at 37 °C with a humidified 5% CO2 atmosphere.
(§3) HT1080, U87MG, and U2OS exponentially growing cells were seeded into 96-well plates and then, 24 h later, treated for 72 h with several dilutions of test compounds in the range 10 − 0.2 μM. Inhibition of cell proliferation was measured by means of a classical sulforhodamine B (SRB) assay[40] performed in triplicate.

[7] = tested on: U87MG (glioblastoma) cells; test: proliferation assay (sulforhodamine B), U87MG; assay type: cell-based, human; settings: 72 h, range 10–0.2 µM, SRB, read-out: IC50, inhibition of cell proliferation
Protocol: as §2, §3

[8] = tested on: U2OS (osteosarcoma) cells; test: proliferation assay (sulforhodamine B), U2OS; assay type: cell-based, human; settings: 72 h, range 10–0.2 µM, SRB, read-out: IC50, inhibition of cell proliferation
Protocol: as §2, §3

[9] = tested on: FGF-1, FGF-2, VEGF, MMP-9 and heparanase mRNA in HT1080 cells; test: real-time qPCR of angiogenesis-related genes and heparanase in HT1080 cells; assay type: cell-based, human; settings: 1 µM, 24 h, q-PCR
Protocol: Total RNA was extracted from HT1080 cells, upon 24 h of treatment with test compounds (1 µM) and then retrotranscribed using the iScript Advanced cDNA Synthesis Kit for RT-qPCR (Bio-Rad Laboratories Inc., Hercules, CA) according to the manufacturer’s instructions. Real time quantitative PCR analysis was performed using SsoAdvanced Universal SYBR Green Supermix (Bio- Rad Laboratories Inc., Hercules, CA) and the following PrimePCR SYBR Green Assays: qHsaCID0015228 (heparanase), qHsaCED0002206 (FGF-1), qHsaCID0015510 (FGF-2), qHsaCID0011597 (MMP-9), and qHsaCED0043454 (VEGF-A) (Bio-Rad Laboratories Inc., Hercules, CA). The 7900HT Sequence Detection System instrument and software (Applied Biosystems) were used to quantify the relative expression of the target genes. Tests were performed in triplicate.

[10] = fondaparinux assay on human GS3 heparanase, mean of triplicates, read-out: IC50 (µM) ± SD, heparanase inhibitory activity
[11] = fondaparinux assay on human GS3 heparanase, mean of triplicates

SMILES: O=C(O)Cc1ccc2oc(-c3ccc(NC(=O)Nc4ccc(-c5nc6cc(CC(=O)O)ccc6o5)cc4F)c(F)c3)nc2c1 [Compound 6]
IC50 [1]: 0.18 µM

SMILES: COc1ccc(C(=O)Nc2ccc(CNc3ccc(-c4nc5ccccc5[nH]4)cc3)cc2)cc1Br [Compound 7, reference compound]
inhibition at 1 µM ([2]; Homo sapiens, HT-1080, concentration tested 1.0 µM): 88 ± 2% | inhibition at 1 µM ([3]; Homo sapiens, U-87 MG, concentration tested 1.0 µM): 78 ± 3% | inhibition at 1 µM ([4]; Homo sapiens, U2OS, concentration tested 1.0 µM): 82 ± 2%

SMILES: COc1cc(/N=N/c2cc(S(=O)(=O)O)cc3cc(S(=O)(=O)O)cc(O)c23)c(C)cc1NC(=O)Nc1cc(C)c(/N=N/c2cc(S(=O)(=O)O)cc3cc(S(=O)(=O)O)cc(O)c23)cc1OC [Compound 16]
IC50 [5, 10]: < 0.5 µM and 0.37 µM | IC50 ([6]; Homo sapiens, HT-1080): > 10 µM | IC50 ([7]; Homo sapiens, U-87 MG): > 10 µM | IC50 ([8]; Homo sapiens): > 10 µM | inhibition at 10 µM ([2]; Homo sapiens, HT-1080): 93 ± 1% | inhibition at 10 µM ([3]; Homo sapiens, U-87 MG): 10 ± 4% | inhibition at 10 µM ([4]; Homo sapiens, U2OS): < 0%

SMILES: O=C(O)c1cc(NC(=O)c2ccc(S(=O)(=O)c3ccc(C(=O)Nc4cc(C(=O)O)cc(C(=O)O)c4)cc3)cc2)cc(C(=O)O)c1 [Compound 52]
% inhib @2.5 M ± SD ([5]; Table S1): 45 ± 7% | % inhib @25 M ± SD ([5]; Table S1): 54 ± 8%

SMILES: O=C(O)c1ccc(NC(=O)c2ccc(S(=O)(=O)c3ccc(C(=O)Nc4ccc(C(=O)O)cc4)cc3)cc2)cc1 [Compound 55]
% inhib @2.5 M ± SD ([5]; Table S1): 30 ± 4% | % inhib @25 M ± SD ([5]; Table S1): 43 ± 7%

SMILES: O=C(Nc1ccc(-c2nc3ccccc3[nH]2)cc1)c1ccc(C(=O)Nc2ccc(-c3nc4ccccc4[nH]3)cc2)cc1 [Compound 61]
IC50 [6]: > 10 µM | IC50 [7]: > 10 µM | IC50 [8]: > 10 µM | Invasion assay inhibition (%) HT1080 ([2]; concentration tested 2.5 µM): 41 ± 3% | Invasion assay inhibition (%) U87MG ([3]; concentration tested 2.5 µM): 43 ± 5% | Invasion assay inhibition (%) U2OS ([4]; concentration tested 2.5 µM): 80 ± 2% | effect on transcription of heparanase [9]: not or very weakly affected | effect on transcription of proangiogenic genes (FGF-1, FGF-2, VEGF, MMP-9) [9]: significant inhibitory effect

SMILES: Cc1ccc(C(=O)Nc2ccc(S(=O)(=O)O)c3cc(S(=O)(=O)O)cc(S(=O)(=O)O)c23)cc1NC(=O)c1cccc(NC(=O)Nc2cccc(C(=O)Nc3cc(C(=O)Nc4ccc(S(=O)(=O)O)c5cc(S(=O)(=O)O)cc(S(=O)(=O)O)c45)ccc3C)c2)c1 [suramin, reference compound]
IC50 ([6]; Homo sapiens, HT-1080): > 10 µM | IC50 ([7]; Homo sapiens, U-87 MG): > 10 µM | IC50 ([8]; Homo sapiens): > 10 µM | inhibition at 10 µM ([2]; Homo sapiens, HT-1080): 22 ± 5% | inhibition at 10 µM ([3]; Homo sapiens, U-87 MG): < 0% | inhibition at 10 µM ([4]; Homo sapiens, U2OS): < 0%

The next lines start with results.

IC50 [5, 10]: < 0.5 µM and 0.38 µM | IC50 ([6]; Homo sapiens, HT-1080): > 10 µM | IC50 ([7]; Homo sapiens, U-87 MG): > 10 µM | IC50 ([8]; Homo sapiens): > 10 µM
SMILES: O=C(Nc1cccc(-c2nc3ccccc3[nH]2)c1)c1ccc(Oc2ccc(C(=O)Nc3cccc(-c4nc5ccccc5[nH]4)c3)cc2)cc1 [Compound 29]
inhibition at 2.5 µM ([2]; Homo sapiens, HT-1080, concentration tested 2.5 µM): 29 ± 4% | inhibition at 2.5 µM ([3]; Homo sapiens, U-87 MG, concentration tested 2.5 µM): 15 ± 3% | inhibition at 2.5 µM ([4]; Homo sapiens, U2OS, concentration tested 2.5 µM): 18 ± 3%

IC50 ([5]; Table S1, fondaparinux assay on GS3 heparanase, read-out: IC50 (M) ± SD): 5.29 ± 0.84 µM | IC50 (µM) ± SD, heparanase inhibitory activity [5, 11]: good inhibitory potencies
SMILES: O=C(Nc1ccc(O)cc1C(=O)O)c1ccc(S(=O)(=O)c2ccc(C(=O)Nc3ccc(O)cc3C(=O)O)cc2)cc1 [Compound 53]

% inhib @2.5 M ± SD ([5]; Table S1): 22 ± 7% | % inhib @25 M ± SD ([5]; Table S1): 72 ± 1%
SMILES: O=C(O)c1cccc(NC(=O)c2ccc(S(=O)(=O)c3ccc(C(=O)Nc4cccc(C(=O)O)c4)cc3)cc2)c1 [Compound 54]

% inhib @2.5 M ± SD ([5]; Table S1): 20 ± 5% | % inhib @25 M ± SD ([5]; Table S1): 51 ± 5%
SMILES: O=C(O)CCC(=O)Nc1ccc(Oc2ccc(S(=O)(=O)c3ccc(Oc4ccc(NC(=O)CCC(=O)O)cc4)cc3)cc2)cc1 [Compound 56]

IC50 [5, 10]: < 5 µM and 3.78 µM
SMILES: O=C(O)c1ccccc1N1C(=O)c2ccc(Oc3ccc(Oc4ccc5c(c4)C(=O)N(c4ccccc4C(=O)O)C5=O)cc3)cc2C1=O [Compound 58]

IC50 (µM) ± SD, heparanase inhibitory activity [5, 11]: good inhibitory potency | IC50 [5, 10]: 2.08 ± 0.16 µM
SMILES: O=C(O)c1ccc2c(c1)C(=O)N(c1cccc(Oc3cccc(Oc4cccc(N5C(=O)c6ccc(C(=O)O)cc6C5=O)c4)c3)c1)C2=O [Compound 59]

% inhib @2.5 M ± SD ([5]; Table S1): 53 ± 12% | % inhib @25 M ± SD ([5]; Table S1): 65 ± 4%
SMILES: O=C(O)c1ccc(N2C(=O)c3ccc(Oc4cccc(Oc5ccc6c(c5)C(=O)N(c5ccc(C(=O)O)cc5)C6=O)c4)cc3C2=O)cc1 [Compound 60]

IC50 [6]: > 10 µM | IC50 [7]: > 10 µM | IC50 [8]: > 10 µM
SMILES: O=C(O)c1ccc2c(c1)C(=O)N(c1ccc(NC(=O)c3cccc(C(=O)Nc4ccc(N5C(=O)c6ccc(C(=O)O)cc6C5=O)cc4Cl)c3)c(Cl)c1)C2=O [Compound 63]
Invasion assay inhibition (%) HT1080 ([2]; concentration tested 2.5 µM): 39 ± 6% | Invasion assay inhibition (%) U87MG ([3]; concentration tested 2.5 µM): 45 ± 4% | Invasion assay inhibition (%) U2OS ([4]; concentration tested 2.5 µM): 75 ± 3% | effect on transcription of heparanase [9]: not or very weakly affected | effect on transcription of proangiogenic genes (FGF-1, FGF-2, VEGF, MMP-9) [9]: significant inhibitory effect
